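96-well plates; 48 h exposure; 5 concentrations. Endpoints by linear interpolation between flanking doses. Not reached: highest tested concentration assigned. GI50 is the concentration that inhibits growth by half. TGI: concentration producing complete growth inhibition.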
Tests used:
Assay in all cases: NCI tumour cell line growth inhibition, 48 h
NCI-H226 lung = test system: NCI-H226 lung
NCI-H460 lung = test system: NCI-H460 lung
NCI/ADR-RES ovarian = test system: NCI/ADR-RES ovarian
OVCAR-4 ovarian = test system: OVCAR-4 ovarian
OVCAR-5 ovarian = test system: OVCAR-5 ovarian
OVCAR-8 ovarian = test system: OVCAR-8 ovarian
PC-3 prostate = test system: PC-3 prostate
RPMI-8226 leukemia = test system: RPMI-8226 leukemia
RXF 393 renal = test system: RXF 393 renal
SF-268 CNS = test system: SF-268 CNS
SF-295 CNS = test system: SF-295 CNS
SF-539 CNS = test system: SF-539 CNS
SK-MEL-2 melanoma = test system: SK-MEL-2 melanoma
SK-MEL-28 melanoma = test system: SK-MEL-28 melanoma
SK-MEL-5 melanoma = test system: SK-MEL-5 melanoma
SK-OV-3 ovarian = test system: SK-OV-3 ovarian
SN12C renal = test system: SN12C renal
SNB-19 CNS = test system: SNB-19 CNS
SNB-75 CNS = test system: SNB-75 CNS
SR leukemia = test system: SR leukemia
SW-620 colon = test system: SW-620 colon
T-47D breast = test system: T-47D breast
TK-10 renal = test system: TK-10 renal
U251 CNS = test system: U251 CNS
UACC-257 melanoma = test system: UACC-257 melanoma
UACC-62 melanoma = test system: UACC-62 melanoma
UO-31 renal = test system: UO-31 renal

Compound: COc1ccc(N2CCN(C3=C(Cl)C(=O)c4ncccc4C3=O)CC2)cc1
- TGI (NCI-H226 lung): 35.9 µM
- GI50 (NCI-H460 lung): 5.86 µM
- TGI (NCI-H460 lung): 19.9 µM
- GI50 (NCI/ADR-RES ovarian): 6.74 µM
- TGI (NCI/ADR-RES ovarian): 28.6 µM
- GI50 (OVCAR-4 ovarian): 2.18 µM
- TGI (OVCAR-4 ovarian): 5.36 µM
- GI50 (OVCAR-5 ovarian): 16.2 µM
- TGI (OVCAR-5 ovarian): 30.3 µM
- GI50 (OVCAR-8 ovarian): 4.87 µM
- TGI (OVCAR-8 ovarian): 17.9 µM
- GI50 (PC-3 prostate): 13.8 µM
- TGI (PC-3 prostate): 29.1 µM
- GI50 (RPMI-8226 leukemia): 2.69 µM
- TGI (RPMI-8226 leukemia): 7.32 µM
- GI50 (RXF 393 renal): 2.61 µM
- TGI (RXF 393 renal): 8.37 µM
- GI50 (SF-268 CNS): 19.2 µM
- TGI (SF-268 CNS): 50.1 µM
- GI50 (SF-295 CNS): 13.9 µM
- TGI (SF-295 CNS): 28.3 µM
- GI50 (SF-539 CNS): 7.66 µM
- TGI (SF-539 CNS): 21.2 µM
- GI50 (SK-MEL-2 melanoma): 12 µM
- TGI (SK-MEL-2 melanoma): 25.4 µM
- GI50 (SK-MEL-28 melanoma): 3.8 µM
- TGI (SK-MEL-28 melanoma): 13.2 µM
- GI50 (SK-MEL-5 melanoma): 12.8 µM
- TGI (SK-MEL-5 melanoma): 25.5 µM
- GI50 (SK-OV-3 ovarian): 12.2 µM
- TGI (SK-OV-3 ovarian): 25.2 µM
- GI50 (SN12C renal): 11.1 µM
- TGI (SN12C renal): 25.6 µM
- GI50 (SNB-19 CNS): 16.9 µM
- TGI (SNB-19 CNS): 32.9 µM
- GI50 (SNB-75 CNS): 14.3 µM
- TGI (SNB-75 CNS): 28.8 µM
- GI50 (SR leukemia): 2.27 µM
- TGI (SR leukemia): 6.59 µM
- GI50 (SW-620 colon): 1.63 µM
- TGI (SW-620 colon): 3.79 µM
- GI50 (T-47D breast): 1.78 µM
- TGI (T-47D breast): 4.26 µM
- GI50 (TK-10 renal): 4.11 µM
- TGI (TK-10 renal): 11.6 µM
- GI50 (U251 CNS): 10.7 µM
- TGI (U251 CNS): 24.1 µM
- GI50 (UACC-257 melanoma): 2.86 µM
- TGI (UACC-257 melanoma): 8.41 µM
- GI50 (UACC-62 melanoma): 5.99 µM
- TGI (UACC-62 melanoma): 19.3 µM
- GI50 (UO-31 renal): 2 µM
- TGI (UO-31 renal): 6.83 µM

— PubChem BioAssay (NCI)
